{"source": "paper PMC4730229", "about": "“Benzobisthiazoles Represent a Novel Scaffold for Kinase Inhibitors of CLK Family Members” (Biochemistry, 2015)", "key": {"firefly luciferase": {"test_system": "firefly luciferase", "assay": "Luciferase inhibition assay (Kinase-Glo, no kinase)", "type": "biochemical", "settings": "compound at 10 μM", "experimental": "For analysis of luciferase inhibition, 10 μL of luciferase reagent (Kinase-Glo, Promega) was added to 10 μL of a mixture consisting of 1 μM ATP and 5 μM S6K and 10 μM compound (potential kinase inhibitor) in buffer A in the absence of kinase and incubated for 10 min at room temperature in a white well plate before the luminescence was read. The percentage of inhibition is equal to (luminescence in the assay without compound – luminescence in the assay with compound)/(luminescence in the assay without compound) × 100."}, "PHK": {"test_system": "PHK", "assay": "Kinase profiling (radioactive filter binding)", "type": "biochemical, human", "settings": "1 uM compound", "experimental": "(§1) 3A5 and 5E4 were sent to the International Centre for Kinase Profiling at the MRC Protein Phosphorylation and Ubiquitylation Unit for profiling (as described in ref ([17])). Compounds were profiled against 140 kinases using a radioactive ([^33P]ATP) filter binding assay at a concentration of 1 μM. Results were obtained as inhibition of kinase activity and are listed in Supplementary Table 2."}, "AMPK (hum)": {"test_system": "AMPK (hum)", "assay": "Kinase profiling (radioactive filter binding)", "type": "biochemical, human", "settings": "1 uM compound", "experimental": "as §1"}, "[1]": {"biological_target": "T1, GST-CLK2cd (CLK2 catalytic domain) (Homo sapiens, UniProt P49760)", "T1 construct": "cDNA encoding the CLK2 catalytic domain (CLK2cd, amino acids 140–496); made in house; host or cells: Escherichia coli BL21(DE3)-R3-lambda-PPase", "T1 sequence (P49760 140-496)": "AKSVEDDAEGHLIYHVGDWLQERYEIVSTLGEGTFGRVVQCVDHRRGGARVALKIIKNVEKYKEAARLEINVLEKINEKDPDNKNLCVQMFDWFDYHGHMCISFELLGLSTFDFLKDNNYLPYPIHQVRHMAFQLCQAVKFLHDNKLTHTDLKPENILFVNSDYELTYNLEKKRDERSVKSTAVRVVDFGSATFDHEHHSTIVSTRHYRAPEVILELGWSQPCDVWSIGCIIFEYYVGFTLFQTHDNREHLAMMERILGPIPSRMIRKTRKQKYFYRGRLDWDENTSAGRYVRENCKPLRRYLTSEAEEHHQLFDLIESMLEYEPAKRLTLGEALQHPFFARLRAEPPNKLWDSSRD", "assay": "High-throughput screen, Kinase-Glo in vitro kinase assay", "type": "biochemical", "settings": "compound at 10 μM; read-out: percentage of inhibition on CLK2 (primary screen)", "experimental": "A small molecule inhibitor library consisting of 1600 compounds was obtained from LIFE Chemicals (Kiev, Ukraine). These compounds are part of the CUTE kinase collection that was predicted by in silico profiling against a panel of targets and includes potent kinase inhibitor compounds.[16] Compounds were dissolved as 10 mM stocks in DMSO and stored at room temperature, in the presence of 5% humidity and 5% oxygen in the dark in a Roylan Storage Pod system. Compounds were dispensed into white 384-well plates using the Labcyte Echo520 instrument at a final concentration of 10 μM. Next, 5 μL of 144.92 nM purified GST-CLK2cd in kinase assay buffer A was added to the compounds, incubated for 10 min at room temperature prior to addition of 5 μL of a 2 μM ATP/10 μM S6K peptide mixture, and incubated again for 60 min at room temperature. Subsequently, 10 μL of Kinase-Glo was added to the wells, and the plates were analyzed after 10 min on the Envision II multilabel plate reader (PerkinElmer). […] The percentage of inhibition is equal to 100 – [(total ATP before assay – remaining ATP in assay with compound)/(total ATP before assay – remaining ATP in assay with DMSO) × 100]."}, "Dyrk1A": {"biological_target": "T2, Dyrk1A (Homo sapiens, UniProt Q13627)", "T2 construct": "purchased Invitrogen PV3785", "assay": "Kinase profiling (radioactive filter binding)", "type": "biochemical", "settings": "for DYRK1A activity in kinase profiling: 1 uM compound; for inhibition at 1 µM: 1 μM compound, read-out: inhibitory activity toward DYRK1A in kinase panel"}, "PDGFRA": {"biological_target": "PDGFRA (Homo sapiens, UniProt P16234)", "assay": "Kinase profiling (radioactive filter binding)", "type": "biochemical", "settings": "1 uM compound", "experimental": "as §1"}, "DYRK3": {"biological_target": "DYRK3 (Homo sapiens, UniProt O43781)", "assay": "Kinase profiling (radioactive filter binding)", "type": "biochemical", "settings": "1 uM compound", "experimental": "as §1"}, "DYRK2": {"biological_target": "DYRK2 (Homo sapiens, UniProt Q92630)", "sequence (Q92630 whole entry)": "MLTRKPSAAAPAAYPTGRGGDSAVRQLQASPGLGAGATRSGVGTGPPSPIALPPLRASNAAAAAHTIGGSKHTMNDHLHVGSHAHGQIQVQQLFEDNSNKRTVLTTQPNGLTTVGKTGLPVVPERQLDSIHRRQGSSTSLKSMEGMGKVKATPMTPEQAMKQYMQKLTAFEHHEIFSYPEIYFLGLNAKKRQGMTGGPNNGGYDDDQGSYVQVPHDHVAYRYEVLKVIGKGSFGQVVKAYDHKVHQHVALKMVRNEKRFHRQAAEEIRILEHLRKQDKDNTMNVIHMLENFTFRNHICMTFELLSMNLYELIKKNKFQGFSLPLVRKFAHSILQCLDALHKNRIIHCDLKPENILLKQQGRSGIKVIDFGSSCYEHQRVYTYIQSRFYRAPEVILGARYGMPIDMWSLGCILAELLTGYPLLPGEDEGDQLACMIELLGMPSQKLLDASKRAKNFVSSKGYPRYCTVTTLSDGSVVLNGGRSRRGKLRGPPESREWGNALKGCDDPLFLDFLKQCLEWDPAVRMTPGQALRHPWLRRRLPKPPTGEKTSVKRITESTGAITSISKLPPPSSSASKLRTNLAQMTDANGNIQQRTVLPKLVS", "assay": "Kinase profiling (radioactive filter binding)", "type": "biochemical", "settings": "1 uM compound", "experimental": "as §1"}, "GSK3b": {"biological_target": "GSK3b (Homo sapiens, UniProt P49841)", "sequence (P49841 whole entry)": "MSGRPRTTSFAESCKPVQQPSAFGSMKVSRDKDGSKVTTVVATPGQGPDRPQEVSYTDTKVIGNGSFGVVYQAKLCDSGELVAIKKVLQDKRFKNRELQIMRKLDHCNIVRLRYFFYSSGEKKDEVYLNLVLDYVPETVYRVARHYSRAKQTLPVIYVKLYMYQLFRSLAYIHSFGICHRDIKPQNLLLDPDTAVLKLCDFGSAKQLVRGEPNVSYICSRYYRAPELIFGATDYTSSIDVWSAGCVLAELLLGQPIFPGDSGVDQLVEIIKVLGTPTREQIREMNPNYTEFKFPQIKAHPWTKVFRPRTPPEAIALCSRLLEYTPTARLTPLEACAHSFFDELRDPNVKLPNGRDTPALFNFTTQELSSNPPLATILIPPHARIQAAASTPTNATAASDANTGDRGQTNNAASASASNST", "assay": "Kinase profiling (radioactive filter binding)", "type": "biochemical", "settings": "1 uM compound", "experimental": "as §1"}, "IRAK1": {"biological_target": "IRAK1 (Homo sapiens, UniProt P51617)", "sequence (P51617 whole entry)": "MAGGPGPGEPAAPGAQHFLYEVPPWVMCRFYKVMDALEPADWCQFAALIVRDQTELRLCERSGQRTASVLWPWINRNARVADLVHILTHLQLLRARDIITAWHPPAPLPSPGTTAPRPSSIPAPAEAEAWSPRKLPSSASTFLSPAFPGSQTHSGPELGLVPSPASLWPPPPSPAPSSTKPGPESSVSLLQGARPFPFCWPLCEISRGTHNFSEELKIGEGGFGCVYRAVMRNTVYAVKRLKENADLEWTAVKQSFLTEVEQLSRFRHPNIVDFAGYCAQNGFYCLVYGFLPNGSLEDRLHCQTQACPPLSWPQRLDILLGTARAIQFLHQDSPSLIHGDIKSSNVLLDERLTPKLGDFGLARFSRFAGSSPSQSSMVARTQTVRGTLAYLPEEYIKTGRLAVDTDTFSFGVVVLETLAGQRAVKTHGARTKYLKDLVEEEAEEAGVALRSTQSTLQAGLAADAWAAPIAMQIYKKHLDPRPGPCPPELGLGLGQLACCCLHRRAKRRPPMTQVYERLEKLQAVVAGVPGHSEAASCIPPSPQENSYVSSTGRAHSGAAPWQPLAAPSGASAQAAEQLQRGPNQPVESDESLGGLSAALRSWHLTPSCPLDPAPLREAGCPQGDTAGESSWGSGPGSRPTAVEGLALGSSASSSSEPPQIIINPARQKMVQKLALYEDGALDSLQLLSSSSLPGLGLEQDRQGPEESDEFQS", "assay": "Kinase profiling (radioactive filter binding)", "type": "biochemical", "settings": "1 uM compound", "experimental": "as §1"}, "IGF-1R": {"biological_target": "IGF-1R (Homo sapiens, UniProt P08069)", "assay": "Kinase profiling (radioactive filter binding)", "type": "biochemical", "settings": "1 uM compound", "experimental": "as §1"}, "TTBK1": {"biological_target": "TTBK1 (Homo sapiens, UniProt Q5TCY1)", "sequence (Q5TCY1 whole entry)": "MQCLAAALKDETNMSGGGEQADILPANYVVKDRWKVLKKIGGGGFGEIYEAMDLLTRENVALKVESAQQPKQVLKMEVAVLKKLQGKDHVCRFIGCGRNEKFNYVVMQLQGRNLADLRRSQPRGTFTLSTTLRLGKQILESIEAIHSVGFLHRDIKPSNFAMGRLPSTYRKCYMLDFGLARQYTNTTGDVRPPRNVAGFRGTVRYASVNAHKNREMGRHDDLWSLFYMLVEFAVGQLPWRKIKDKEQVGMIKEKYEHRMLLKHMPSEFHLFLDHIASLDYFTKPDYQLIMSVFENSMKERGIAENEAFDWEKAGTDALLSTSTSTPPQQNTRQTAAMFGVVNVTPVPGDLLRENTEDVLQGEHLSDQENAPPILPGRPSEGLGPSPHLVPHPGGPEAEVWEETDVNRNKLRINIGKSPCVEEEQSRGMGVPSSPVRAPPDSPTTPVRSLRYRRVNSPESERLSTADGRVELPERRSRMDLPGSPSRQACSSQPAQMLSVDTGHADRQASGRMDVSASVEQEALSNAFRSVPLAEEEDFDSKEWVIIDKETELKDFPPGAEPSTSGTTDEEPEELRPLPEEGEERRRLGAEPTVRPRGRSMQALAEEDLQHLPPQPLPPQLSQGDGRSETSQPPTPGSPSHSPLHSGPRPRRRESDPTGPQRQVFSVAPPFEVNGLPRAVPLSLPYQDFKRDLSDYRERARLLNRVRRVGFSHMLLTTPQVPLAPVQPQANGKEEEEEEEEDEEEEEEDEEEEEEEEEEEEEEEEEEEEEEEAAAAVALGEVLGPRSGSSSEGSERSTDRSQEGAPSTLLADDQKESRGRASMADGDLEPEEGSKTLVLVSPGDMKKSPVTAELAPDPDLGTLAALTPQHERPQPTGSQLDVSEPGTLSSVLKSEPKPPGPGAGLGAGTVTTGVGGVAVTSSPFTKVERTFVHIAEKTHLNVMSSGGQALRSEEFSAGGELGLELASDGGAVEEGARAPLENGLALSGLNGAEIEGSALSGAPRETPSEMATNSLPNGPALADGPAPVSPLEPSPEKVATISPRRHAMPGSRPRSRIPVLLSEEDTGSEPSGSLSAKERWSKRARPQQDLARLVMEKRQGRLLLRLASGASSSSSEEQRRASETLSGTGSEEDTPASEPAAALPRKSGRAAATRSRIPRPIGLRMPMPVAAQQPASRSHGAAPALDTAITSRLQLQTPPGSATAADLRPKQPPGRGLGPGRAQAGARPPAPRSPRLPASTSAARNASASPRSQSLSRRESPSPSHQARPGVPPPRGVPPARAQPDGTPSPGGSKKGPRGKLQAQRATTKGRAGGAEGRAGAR", "assay": "Kinase profiling (radioactive filter binding)", "type": "biochemical", "settings": "1 uM compound", "experimental": "as §1"}, "ULK1": {"biological_target": "ULK1 (Homo sapiens, UniProt O75385)", "assay": "Kinase profiling (radioactive filter binding)", "type": "biochemical", "settings": "1 uM compound", "experimental": "as §1"}, "LKB1": {"biological_target": "LKB1 (Homo sapiens, UniProt Q15831)", "sequence (Q15831 whole entry)": "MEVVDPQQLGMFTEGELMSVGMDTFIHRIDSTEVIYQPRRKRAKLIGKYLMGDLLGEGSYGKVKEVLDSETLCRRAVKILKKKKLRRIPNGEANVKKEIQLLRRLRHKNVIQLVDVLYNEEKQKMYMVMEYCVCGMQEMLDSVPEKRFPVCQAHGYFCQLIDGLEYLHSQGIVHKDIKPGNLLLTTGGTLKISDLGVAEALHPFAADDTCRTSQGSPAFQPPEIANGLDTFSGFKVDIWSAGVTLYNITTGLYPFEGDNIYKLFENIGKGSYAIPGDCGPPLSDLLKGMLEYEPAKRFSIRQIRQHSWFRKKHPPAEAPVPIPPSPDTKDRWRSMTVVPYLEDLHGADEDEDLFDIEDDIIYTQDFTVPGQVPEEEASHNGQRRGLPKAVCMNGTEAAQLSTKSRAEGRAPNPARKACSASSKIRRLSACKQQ", "sequence (Q7RTN6 whole entry partner)": "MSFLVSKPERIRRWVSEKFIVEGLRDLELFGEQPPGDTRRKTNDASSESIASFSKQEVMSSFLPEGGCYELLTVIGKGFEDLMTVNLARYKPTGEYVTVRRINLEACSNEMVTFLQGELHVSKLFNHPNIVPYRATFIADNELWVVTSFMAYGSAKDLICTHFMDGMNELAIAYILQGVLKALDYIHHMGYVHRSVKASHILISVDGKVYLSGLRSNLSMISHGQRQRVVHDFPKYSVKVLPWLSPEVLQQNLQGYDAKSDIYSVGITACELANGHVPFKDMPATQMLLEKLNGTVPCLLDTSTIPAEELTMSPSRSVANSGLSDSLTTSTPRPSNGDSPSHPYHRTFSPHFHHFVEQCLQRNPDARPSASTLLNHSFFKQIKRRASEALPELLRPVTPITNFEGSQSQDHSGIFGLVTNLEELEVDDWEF", "sequence (Q9Y376 whole entry partner)": "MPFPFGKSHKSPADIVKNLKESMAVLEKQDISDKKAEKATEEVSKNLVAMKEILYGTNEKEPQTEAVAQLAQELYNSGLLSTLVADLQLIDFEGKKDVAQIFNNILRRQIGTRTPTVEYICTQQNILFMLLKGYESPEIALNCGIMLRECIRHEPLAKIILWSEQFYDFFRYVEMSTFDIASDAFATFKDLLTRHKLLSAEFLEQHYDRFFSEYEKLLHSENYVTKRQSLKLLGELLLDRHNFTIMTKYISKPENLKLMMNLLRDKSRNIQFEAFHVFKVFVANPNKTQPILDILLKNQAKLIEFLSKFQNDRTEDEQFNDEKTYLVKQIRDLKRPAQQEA", "assay": "Kinase profiling (radioactive filter binding)", "type": "biochemical", "settings": "1 uM compound", "experimental": "as §1"}, "VEG-FR": {"biological_target": "VEG-FR (Homo sapiens, UniProt P17948)", "assay": "Kinase profiling (radioactive filter binding)", "type": "biochemical", "settings": "1 uM compound", "experimental": "as §1"}, "CLK2": {"biological_target": "CLK2 (Homo sapiens, UniProt P49760)", "sequence (P49760 140-496)": "as the sequence (P49760 140-496) above", "assay": "Kinase inhibition assay, IC50", "type": "biochemical", "set-up": "cDNA encoding the CLK2 catalytic domain (CLK2cd, amino acids 140–496); made in house; host or cells: Escherichia coli BL21(DE3)-R3-lambda-PPase", "settings": "relative to 3A5"}}, "data": [{"smiles": "Cc1nc2ccc3sc(NC(=O)c4ccc5ncsc5c4)nc3c2s1", "note": "[3A5, N-(2-methyl[1,3]thiazolo[5,4-e][1,3]benzothiazol-7-yl)-1,3-benzothiazole-6-carboxamide]", "values": [{"measurement": "% inhibition of luciferase", "setting": "firefly luciferase", "result": "6.7 ± 2.8", "unit": "%"}, {"measurement": "PHK activity in kinase profiling", "setting": "PHK", "result": 104}, {"measurement": "AMPK (hum) activity in kinase profiling", "setting": "AMPK (hum)", "result": 68}, {"measurement": "inhibition at 10 µM", "setting": "[1]", "result": 68, "unit": "%"}, {"measurement": "DYRK1A activity in kinase profiling", "setting": "Dyrk1A", "result": 16}, {"measurement": "inhibition at 1 µM", "setting": "Dyrk1A", "result": 84, "unit": "%"}, {"measurement": "PDGFRA activity in kinase profiling", "setting": "PDGFRA", "result": 91}, {"measurement": "DYRK3 activity in kinase profiling", "setting": "DYRK3", "result": 72}, {"measurement": "DYRK2 activity in kinase profiling", "setting": "DYRK2", "result": 61}, {"measurement": "GSK3b activity in kinase profiling", "setting": "GSK3b", "result": 102}, {"measurement": "IRAK1 activity in kinase profiling", "setting": "IRAK1", "result": 88}, {"measurement": "IGF-1R activity in kinase profiling", "setting": "IGF-1R", "result": 123}, {"measurement": "TTBK1 activity in kinase profiling", "setting": "TTBK1", "result": 101}, {"measurement": "ULK1 activity in kinase profiling", "setting": "ULK1", "result": 138}, {"measurement": "LKB1 activity in kinase profiling", "setting": "LKB1", "result": 79}, {"measurement": "VEG-FR activity in kinase profiling", "setting": "VEG-FR", "result": 108}]}, {"smiles": "CSc1nc2ccc3nc(NC(=O)c4ccco4)sc3c2s1", "note": "[5E4, N-[7-(methylsulfanyl)[1,3]thiazolo[4,5-g][1,3]benzothiazol-2-yl]-2-furamide]", "values": [{"measurement": "% inhibition of luciferase", "setting": "firefly luciferase", "result": "29.7 ± 2.9", "unit": "%"}, {"measurement": "PHK activity in kinase profiling", "setting": "PHK", "result": 110}, {"measurement": "AMPK (hum) activity in kinase profiling", "setting": "AMPK (hum)", "result": 84}, {"measurement": "inhibition at 10 µM", "setting": "[1]", "result": 57, "unit": "%"}, {"measurement": "decrease of inhibition against CLK2 compared to 3A5", "setting": "CLK2", "result": "2–3 fold"}, {"measurement": "DYRK1A activity in kinase profiling", "setting": "Dyrk1A", "result": 3}, {"measurement": "inhibition at 1 µM", "setting": "Dyrk1A", "result": 97, "unit": "%"}, {"measurement": "PDGFRA activity in kinase profiling", "setting": "PDGFRA", "result": 86}, {"measurement": "DYRK3 activity in kinase profiling", "setting": "DYRK3", "result": 30}, {"measurement": "DYRK2 activity in kinase profiling", "setting": "DYRK2", "result": 9}, {"measurement": "GSK3b activity in kinase profiling", "setting": "GSK3b", "result": 84}, {"measurement": "IRAK1 activity in kinase profiling", "setting": "IRAK1", "result": 87}, {"measurement": "IGF-1R activity in kinase profiling", "setting": "IGF-1R", "result": 117}, {"measurement": "TTBK1 activity in kinase profiling", "setting": "TTBK1", "result": 99}, {"measurement": "ULK1 activity in kinase profiling", "setting": "ULK1", "result": 127}, {"measurement": "LKB1 activity in kinase profiling", "setting": "LKB1", "result": 79}, {"measurement": "VEG-FR activity in kinase profiling", "setting": "VEG-FR", "result": 53}]}]}
